Data taken from patent US12318388B2, “Pyrimidine derivatives for prevention and treatment of gram-negative bacterial infection, contamination and fouling” (UNIVERSITÉ DE LIÈGE, priority 2019, dated 2025).
In brackets after ≈: the same amount, converted by molar mass. Several values for one entry are separate records, joined by “and”; a condition that tells them apart may be missing. Identical values can stand only once. Entries after “also recorded” stand apart in the source; their conditions may differ.

How the values were obtained:
Format in all cases: cell-based
[1] = tested on: Pseudomonas aeruginosa (ATCC27853); test: Minimal Inhibitory Concentration (MIC) on Pseudomonas aeruginosa with or without PMBN
Method: A single colony grown on an tryptic soy agar plate is resuspended and cultured in tryptic soy broth medium overnight (O/N) in aerobic conditions (37° C. with 220 rpm shaking), next day a 1:100 inoculum in Mueller-Hinton broth (MHB) is incubated in aerobic conditions for 3h (OD=0.5-0.6) and an inoculum of 1:1000 dilution, corresponding to 1-3×10^5 CFU/ml, is incubated in presence or absence of different concentrations of the tested molecules in 1% DMSO (vehicle) with or without PMBN at 0.5 μg/ml. After 28-30h growth the OD of each culture was measured at 600 nm (OD600) in a spectrophotometer (Victor 3-Perkin Elmer). The MIC represents the concentration at which there is no visible growth of bacteria, i.e. ΔOD at 600 nm equal to zero (blank is the medium alone) wherein ΔOD is the difference between the resulting optical density (OD) with the molecule together with PMBN, and the optical density (OD) of the blank (blank is the medium) alone.

[2] = tested on: Escherichia coli (ATCC 8739); test: Minimal Inhibitory Concentration (MIC) on Escherichia coli with or without PMBN, OD600 after O/N growth; details: for MIC: molecule alone
Method: The Minimal Inhibitory Concentration (MIC) of molecules 2329, 2412, 2452 and 2461 together with polymyxin B nonapeptide (PMBN) was determined on Escherichia coli (ATCC 8739) according to EUCAST (European Committee on Antimicrobial Susceptibility Testing) recommendations.
(§1) Briefly, a single colony grown on a Luria-Bertani Agar (LB) plate was resuspended and cultured in the LB medium overnight (O/N) in aerobic conditions (37° C. with 220 rpm shaking), next day a 1:50 inoculum in Mueller-Hinton broth (MHB) was incubated in aerobic conditions for 1h30 (OD=0.08-0.1) and an inoculum of 1:300 dilution, corresponding to 3×10^6 CFU/ml, was incubated in presence or absence of different concentrations of the molecules in 1% DMSO (vehicle) with or without Polymyxin B nonapeptide (PMBN) at 40 μg/ml. After O/N growth the OD of each culture was measured at 600 nm in a spectrophotometer (OD600). The MIC represents the concentration at which there is no visible growth of bacteria, i.e. ΔOD at 600 nm equal to zero wherein ΔOD is the difference between the resulting optical density (OD) with the molecule together with PMBN, and the optical density (OD) of the blank (blank is the medium) alone.
(§2) A single colony grown on an Lurian-Bertani (LB) agar plate is resuspended and cultured in LB medium overnight (O/N) in aerobic conditions (37° C. with 220 rpm shaking), next day a 1:50 inoculum in Mueller-Hinton broth (MHB) is incubated in aerobic conditions for 1h30 (OD=0.08-0.1) and an inoculum of 1:300 dilution, corresponding to 3×10^6 CFU/ml, is incubated in presence or absence of different concentrations of the tested molecules in 1% DMSO (vehicle) with or without PMBN at 40 μg/ml. After O/N growth the OD of each culture was measured at 600 nm (OD600) in a spectrophotometer (Victor 3-Perkin Elmer). The MIC represents the concentration at which there is no visible growth of bacteria, i.e. ΔOD at 600 nm equal to zero wherein ΔOD is the difference between the resulting optical density (OD) with the molecule together with PMBN, and the optical density (OD) of the blank (blank is the medium) alone.
as §1, with “cultured in LB medium” for “cultured in the LB medium”, “of the above-mentioned molecules in” for “of the molecules in”
as §2, with “a Luria-Bertani” for “an Lurian-Bertani”, “above-mentioned pyrazolopyrimidine molecule” for “tested molecules”, “alone. […]” for “alone.”

[3] = tested on: E. coli (ATCC 8739) biofilm; test: Inhibition of E. coli biofilm formation (crystal violet, biofilm mass); details: for E. coli biofilm mass expressed in percentage: replicate values
Method: 1.5×10^4 CFU of E. coli (ATCC 8739) in early logarithmic phase were added in a well of a 48-well polystyrene plate containing Luria Bertani (LB) medium supplemented with 5% mannose (purchased from Sigma-aldrich #M6020-25G) and incubated for 48h at 37° C. The incubation was carried in static conditions in presence or absence of different concentrations of the molecules 2329 or 2666 in combination or not with the penetrating agent polymyxin B nonapeptide (PMBN) (35 μg/ml) (provided by Sigma-aldrich #P2076-5MG). After incubation, planktonic bacteria, which are bacteria floating in the liquid medium, were removed and adherent bacteria were washed 2 times in PBS. Crystal Violet (Sigma-aldrich #C0775-25G) (1% solution in dH2O) was then added to the wells for 15 min at RT to stain the biofilm. Wells were washed 3 times with PBS (phosphate buffered saline provided by Lonza #17-516F) to eliminate unbound crystal violet and […] Acetic Acid 20% was added and incubated at RT for 10 min. The absorbance of the solution was measured at 570 nm with an Infinite 200 PRO (Tecan) reflecting the total biomass of the biofilm, which corresponds to the sum of live and dead bacteria. The Biofilm Mass, expressed in percentage, is calculated by the following formula: Abs(sample)/Abs(DMSO 1%)*100, wherein the Abs(sample) or Abs(DMSO) represents the difference between the absorbance of the sample or DMSO and the blank (blank is the medium alone without bacteria).

Row | Compound | Minimal inhibitory concentration without PMBN ([1]; Pseudomonas aeruginosa (ATCC 27853), molecule alone) [µM] | Minimal inhibitory concentration With PMBN ([1]; Pseudomonas aeruginosa (ATCC 27853), together with PMBN at 0.5 μg/ml) [µM] | OD600 nm after O/N growth of Escherichia coli (FIG. 4) ([2]; 10 μM with 40 μg/ml PMBN) | MIC ([2]; E. coli (ATCC 8739)) [µM] | Minimal inhibitory concentration With PMBN ([2]; E. coli (ATCC 8739), together with PMBN at 40 μg/ml) [µM] | MIC ([2]; Escherichia coli, ATCC8739, E. coli (ATCC 8739)) [µM] | Activity against Escherichia coli (ATCC 8739), conclusion ([2]; with 40 μg/ml PMBN) | Effect on E. coli biofilm formation (FIG. 2) ([3]; 5 μM combined with 35 μg/ml PMBN) | E. coli biofilm mass expressed in percentage ([3]; 2329 20 μM without PMBN) | E. coli biofilm mass expressed in percentage ([3]; P + 2329 5 μM (PMBN 35 μg/ml)) | E. coli biofilm mass expressed in percentage ([3]; P + 2329 10 μM (PMBN 35 μg/ml)) | Effect on E. coli biofilm growth (FIG. 2) ([3]; molecule alone, without PMBN) | Inhibition of Pseudomonas aeruginosa growth by PMBN alone ([1]; 0.5 μg/ml PMBN alone) | Inhibition of E. coli growth by PMBN alone ([2]; 40 μg/ml PMBN alone) | Effect on E. coli biofilm growth (FIG. 2) ([3]; PMBN 35 μg/ml alone) | E. coli biofilm mass expressed in percentage ([3]; PMBN 35 μg/ml alone)
1 | CCCSc1nc(N[C@@H]2C[C@H]2c2ccc(F)c(F)c2)c2ncn(C)c2n1 [molecule 2329, N-((1R,2S)-2-(3,4-difluorophenyl)cyclopropyl)-9-methyl-2-(propylthio)-9H-purin-6-amine] | >100 | 50 (≈ 18.8 µg/mL) | killed all bacteria | >100 | 10 (≈ 3.75 µg/mL) | > 100 | bactericidal activity | fully inhibited | 110.45 percentage and 124.24 percentage and 97.41 percentage and 107.12 percentage | 12.79 percentage and 11.45 percentage and −1.25 percentage and −1.59 percentage | 0.12 percentage and −1.01 percentage and 2.96 percentage and 3.11 percentage | no effect | – | – | – | –
2 | Polymyxin B nonapeptide [PMBN, reference compound] | – | – | – | – | – | – | – | – | – | – | – | – | did not inhibit | unable to inhibit; also recorded: did not inhibit | reduced by half | 47.94 percentage and 48.98 percentage and 53.90 percentage and 50.87 percentage
